# Laboratory results reported in US20210254272A1, “TEXTILES HAVING ANTIMICROBIAL PROPERTIES” (Livinguard AG, priority 2015, published 2021).
# System: E. coli (ATCC 25922)
# Experiment: AATCC Test Method 100-2012 antibacterial activity of the treated textile, after 25 washes and 12 abrasion cycles, contact time 60 minutes
# Format: cell-based
# Experimental: The antibacterial activity of the textile was tested in accordance with AATCC Test Method 100-2012. Prior to the test, the fabric was cut into coupons of 2×4 inches and washed separately 25 times, and exposed to 12 abrasion cycles, as per US EPA protocol 90072PA4 (described further below). The tests were made against E. coli (ATCC 25922). Contact time was 60 minutes, after inoculating with 10^8 CFU per coupon.
substance,measurement,setting,value
polyglucosamine [chitosan],Log reduction of antimicrobial performance of each active ingredient,"exhaust 80 ° C., solution dosage 1% o.w.f, process time 90 min",2.72 Log
same,Log reduction of antimicrobial performance,"pure cotton fabric, exhaust 80° C., 60 min, dosage 0.1% o.w.f",0.63 Log
same,Log reduction of antimicrobial performance,"pure cotton fabric, exhaust 80° C., 60 min, dosage 0.2% o.w.f",1.37 Log
same,Log reduction of antimicrobial performance,"pure cotton fabric, exhaust 80° C., 60 min, dosage 0.5% o.w.f",1.91 Log
same,Log reduction of antimicrobial performance,"pure cotton fabric, exhaust 80° C., 60 min, dosage 0.8% o.w.f",2.21 Log
same,Log reduction of antimicrobial performance,"pure cotton fabric, exhaust 80° C., 60 min, dosage 1.0% o.w.f",2.71 Log
same,Log reduction of antimicrobial performance,"pure cotton, exhaust 80° C., 1% o.w.f, 60 min, curing 180° C., curing dwell time 0.5 min",0.4 Log
same,Log reduction of antimicrobial performance,"pure cotton, exhaust 80° C., 1% o.w.f, 60 min, curing 180° C., curing dwell time 1.0 min",0.8 Log
same,Log reduction of antimicrobial performance,"pure cotton, exhaust 80° C., 1% o.w.f, 60 min, curing 180° C., curing dwell time 1.5 min",1.6 Log
same,Log reduction of antimicrobial performance,"pure cotton, exhaust 80° C., 1% o.w.f, 60 min, curing 180° C., curing dwell time 2.0 min",2.7 Log
same,Log reduction of antimicrobial performance,"pure cotton, exhaust 80° C., 1% o.w.f, 60 min, curing 180° C., curing dwell time 2.5 min",2.3 Log
same,Log reduction of antimicrobial performance,"pure cotton, exhaust 80° C., 1% o.w.f, 60 min, curing 180° C., curing dwell time 3.0 min",1.4 Log
same,Log reduction of antimicrobial performance,"solution dosage 0.10% o.w.f, exhaust temperature 40° C., process time 60 min",0 Log
same,Log reduction of antimicrobial performance,"solution dosage 0.10% o.w.f, exhaust temperature 60° C., process time 60 min",0 Log
same,Log reduction of antimicrobial performance,"solution dosage 0.10% o.w.f, exhaust temperature 65° C., process time 60 min",0 Log
same,Log reduction of antimicrobial performance,"solution dosage 0.10% o.w.f, exhaust temperature 70° C., process time 60 min",0 Log
same,Log reduction of antimicrobial performance,"solution dosage 0.10% o.w.f, exhaust temperature 75° C., process time 60 min",0.23 Log
same,Log reduction of antimicrobial performance,"solution dosage 0.10% o.w.f, exhaust temperature 80° C., process time 60 min",0.57 Log
same,Log reduction of antimicrobial performance,"solution dosage 0.10% o.w.f, exhaust temperature 85° C., process time 60 min",0.67 Log
same,Log reduction of antimicrobial performance,"solution dosage 0.10% o.w.f, exhaust temperature 90° C., process time 60 min",0.67 Log
same,Log reduction of antimicrobial performance,"solution dosage 0.10% o.w.f, exhaust temperature 95° C., process time 60 min",0.67 Log
same,Log reduction of antimicrobial performance,"solution dosage 0.20% o.w.f, exhaust temperature 40° C., process time 60 min",0 Log
same,Log reduction of antimicrobial performance,"solution dosage 0.20% o.w.f, exhaust temperature 60° C., process time 60 min",0 Log
same,Log reduction of antimicrobial performance,"solution dosage 0.20% o.w.f, exhaust temperature 65° C., process time 60 min",0 Log
same,Log reduction of antimicrobial performance,"solution dosage 0.20% o.w.f, exhaust temperature 70° C., process time 60 min",0 Log
same,Log reduction of antimicrobial performance,"solution dosage 0.20% o.w.f, exhaust temperature 75° C., process time 60 min",0.67 Log
same,Log reduction of antimicrobial performance,"solution dosage 0.20% o.w.f, exhaust temperature 80° C., process time 60 min",1.34 Log
same,Log reduction of antimicrobial performance,"solution dosage 0.20% o.w.f, exhaust temperature 85° C., process time 60 min",1.43 Log
same,Log reduction of antimicrobial performance,"solution dosage 0.20% o.w.f, exhaust temperature 90° C., process time 60 min",1.45 Log
same,Log reduction of antimicrobial performance,"solution dosage 0.20% o.w.f, exhaust temperature 95° C., process time 60 min",1.45 Log
same,Log reduction of antimicrobial performance,"solution dosage 0.50% o.w.f, exhaust temperature 40° C., process time 60 min",0 Log
same,Log reduction of antimicrobial performance,"solution dosage 0.50% o.w.f, exhaust temperature 60° C., process time 60 min",0.09 Log
same,Log reduction of antimicrobial performance,"solution dosage 0.50% o.w.f, exhaust temperature 65° C., process time 60 min",0.09 Log
same,Log reduction of antimicrobial performance,"solution dosage 0.50% o.w.f, exhaust temperature 70° C., process time 60 min",0.15 Log
same,Log reduction of antimicrobial performance,"solution dosage 0.50% o.w.f, exhaust temperature 75° C., process time 60 min",1.12 Log
same,Log reduction of antimicrobial performance,"solution dosage 0.50% o.w.f, exhaust temperature 80° C., process time 60 min",1.89 Log
same,Log reduction of antimicrobial performance,"solution dosage 0.50% o.w.f, exhaust temperature 85° C., process time 60 min",1.93 Log
same,Log reduction of antimicrobial performance,"solution dosage 0.50% o.w.f, exhaust temperature 90° C., process time 60 min",1.94 Log
same,Log reduction of antimicrobial performance,"solution dosage 0.50% o.w.f, exhaust temperature 95° C., process time 60 min",1.94 Log
same,Log reduction of antimicrobial performance,"solution dosage 0.80% o.w.f, exhaust temperature 40° C., process time 60 min",0 Log
same,Log reduction of antimicrobial performance,"solution dosage 0.80% o.w.f, exhaust temperature 60° C., process time 60 min",0.15 Log
same,Log reduction of antimicrobial performance,"solution dosage 0.80% o.w.f, exhaust temperature 65° C., process time 60 min",0.15 Log
same,Log reduction of antimicrobial performance,"solution dosage 0.80% o.w.f, exhaust temperature 70° C., process time 60 min",0.21 Log
same,Log reduction of antimicrobial performance,"solution dosage 0.80% o.w.f, exhaust temperature 75° C., process time 60 min",1.23 Log
same,Log reduction of antimicrobial performance,"solution dosage 0.80% o.w.f, exhaust temperature 80° C., process time 60 min",2.11 Log
same,Log reduction of antimicrobial performance,"solution dosage 0.80% o.w.f, exhaust temperature 85° C., process time 60 min",2.34 Log
same,Log reduction of antimicrobial performance,"solution dosage 0.80% o.w.f, exhaust temperature 90° C., process time 60 min",2.37 Log
same,Log reduction of antimicrobial performance,"solution dosage 0.80% o.w.f, exhaust temperature 95° C., process time 60 min",2.37 Log
same,Log reduction of antimicrobial performance,"solution dosage 1.00% o.w.f, exhaust temperature 40° C., process time 60 min",0 Log
same,Log reduction of antimicrobial performance,"solution dosage 1.00% o.w.f, exhaust temperature 60° C., process time 60 min",0.21 Log
same,Log reduction of antimicrobial performance,"solution dosage 1.00% o.w.f, exhaust temperature 65° C., process time 60 min",0.22 Log
same,Log reduction of antimicrobial performance,"solution dosage 1.00% o.w.f, exhaust temperature 70° C., process time 60 min",0.32 Log
same,Log reduction of antimicrobial performance,"solution dosage 1.00% o.w.f, exhaust temperature 75° C., process time 60 min",1.28 Log
same,Log reduction of antimicrobial performance,"solution dosage 1.00% o.w.f, exhaust temperature 80° C., process time 60 min",2.67 Log
same,Log reduction of antimicrobial performance,"solution dosage 1.00% o.w.f, exhaust temperature 85° C., process time 60 min",2.76 Log
same,Log reduction of antimicrobial performance,"solution dosage 1.00% o.w.f, exhaust temperature 90° C., process time 60 min",2.78 Log
same,Log reduction of antimicrobial performance,"solution dosage 1.00% o.w.f, exhaust temperature 95° C., process time 60 min",2.78 Log
